Reference: patent US8058447B2, “4-Chromenonyl-1,4-dihydropyridinecarbonitriles and the use thereof” (Bayer Pharma Aktiengesellschaft, priority 2005, dated 2011)

Target: T1, human mineralocorticoid receptor (MR) (Homo sapiens, UniProt P08235)
T1 construct: expressed in transfected cells
T1 sequence (P08235 734-984 limits assumed): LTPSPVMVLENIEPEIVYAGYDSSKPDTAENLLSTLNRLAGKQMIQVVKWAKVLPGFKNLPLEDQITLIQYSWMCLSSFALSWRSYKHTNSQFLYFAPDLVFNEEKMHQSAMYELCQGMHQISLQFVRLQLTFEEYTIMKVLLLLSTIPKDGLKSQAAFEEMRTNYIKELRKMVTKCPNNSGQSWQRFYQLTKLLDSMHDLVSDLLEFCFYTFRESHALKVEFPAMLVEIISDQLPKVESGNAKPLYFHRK
Assay: Cellular in vitro assay to determine the inhibitory MR activity (GAL4-MR chimera luciferase reporter in CHO K1 cells)
Assay type: cell-based
Conditions: antagonism of aldosterone-stimulated luciferase in CHO K1 cells expressing GAL4-MR chimera
Source text: 1. Cellular In Vitro Assay to Determine the Inhibitory MR Activity and MR Selectivity Compared with Other Steroid Hormone Receptors
Antagonists of the human mineralocorticoid receptor (MR) are identified, and the activity of the compounds described herein is quantified with the aid of a recombinant cell line. The cell is originally derived from a hamster ovary epithelial cell (Chinese Hamster Ovary, CHO K1, ATCC: American Type Culture Collection, VA 20108, USA).
An established chimera system in which the ligand-binding domains of human steroid hormone receptors are fused to the DNA binding domain of the yeast transcription factor GAL4 is used in this CHO K1 cell line. The GAL4-steroid hormone receptor chimeras produced in this way are cotransfected and stably expressed with a reporter construct in the CHO cells.
To generate the GAL4-steroid hormone receptor chimeras, the GAL4 DNA binding domain (amino acids 1-147) from the vector pFC2-dbd (from Stratagene) is cloned with the PCR-amplified ligand-binding domains of the mineralocorticoid receptor (MR, amino acids 734-985), of the glucocorticoid receptor (GR, amino acids 443-777), of the progesterone receptor (PR, amino acids 680-933) and of the androgen receptor (AR, amino acids 667-919) into the vector pIRES2 (from Clontech). The reporter construct, which comprises five copies of the GAL4 binding site upstream of a thymidine kinase promoter, leads to expression of firefly luciferase (Photinus pyralis) after activation and binding of the GAL4-steroid hormone receptor chimeras by the respective specific agonists aldosterone (MR), dexamethasone (GR), progesterone (PR) and dihydrotestosterone (AR).
The MR, GR, PR and AR cells are plated out in medium (Optimem, 2.5% FCS, 2 mM glutamine, 10 mM HEPES) in 96- (or 384- or 1536-) well microtiter plates on the day before the assay and are kept in a cell incubator (96% humidity, 5% v/v CO2, 37° C.). On the day of the assay, the substances to be tested are taken up in the abovementioned medium and added to the cells. About 10 to 30 minutes after addition of the test substances, the respective specific agonists of the steroid hormone receptors are added. After a further incubation time of 5 to 6 hours, the luciferase activity is measured with the aid of a video camera. The measured relative light units as a function of the substance concentration result in a sigmoidal stimulation curve. The IC50 values are calculated with the aid of the GraphPad PRISM computer program (Version 3.02).

IC50 [nM]	SMILES
193	CCOC(=O)C1=C(C)NC(C(F)(F)F)=C(C#N)C1c1cccc2c(=O)cc(C)oc12 (racemic) [Example 29, Ethyl 5-cyano-2-methyl-4-(2-methyl-4-oxo-4H-chromen-8-yl)-6-(trifluoromethyl)-1,4-dihydropyridine-3-carboxylate]
22	CC1=C(C#N)[C@@H](c2cc(F)c(F)c3c(=O)cc(C)oc23)C(C(=O)OC2CCC2)=C(C)N1 (single isomer, unassigned) [Example 18]
89	CCOC(=O)C1=C(C)NC(C(F)(F)F)=C(C#N)[C@H]1c1cccc2c(=O)cc(C)oc12 (single isomer, unassigned) [Example 30]
127	CC1=C(C#N)C(c2ccc(F)c3c(=O)cc(C)oc23)C(C(=O)CC2CCC2)=C(C)N1 (centres unmarked) [Example 13, 5-(Cyclobutylacetyl)-4-(5-fluoro-2-methyl-4-oxo-4H-chromen-8-yl)-2,6-dimethyl-1,4-dihydropyridine-3-carbonitrile]
195	CC1=C(C#N)C(c2ccc(F)c3c(=O)cc(C)oc23)C(C(=O)CCC(C)C)=C(C)N1 (centres unmarked) [Example 14, 4-(5-Fluoro-2-methyl-4-oxo-4H-chromen-8-yl)-2,6-dimethyl-5-(4-methylpentanoyl)-1,4-dihydropyridine-3-carbonitrile]
93	CC1=C(C#N)C(c2ccc(F)c3c(=O)cc(C)oc23)C(C(=O)CCC2CCC2)=C(C)N1 (centres unmarked) [Example 15, 5-(3-Cyclobutylpropanoyl)-4-(5-fluoro-2-methyl-4-oxo-4H-chromen-8-yl)-2,6-dimethyl-1,4-dihydropyridine-3-carbonitrile]
105	CC1=C(C#N)C(c2ccc([N+](=O)[O-])c3c(=O)cc(C)oc23)C(C(=O)OC(C)C)=C(C)N1 (centres unmarked) [Example 32, Isopropyl 5-cyano-2,6-dimethyl-4-(2-methyl-5-nitro-4-oxo-4H-chromen-8-yl)-1,4-dihydropyridine-3-carboxylate]
290	CC1=C(C#N)C(c2cccc3c(=O)cc(C)oc23)C(C(=O)CC2CCCC2)=C(C)N1 (centres unmarked) [Example 41, 5-(Cyclopentylacetyl)-2,6-dimethyl-4-(2-methyl-4-oxo-4H-chromen-8-yl)-1,4-dihydropyridine-3-carbonitrile]
